Experimental data as given in PMC9457575 (Molecules, 2022).
Entries after “also recorded” stand apart in the source; their conditions may differ. Where two headings read alike, the source gives them in different places.

What was measured:
[1] = molecular target: T1, human CB1 receptor (hCB1) (Homo sapiens, UniProt P21554); experiment: cAMP accumulation assay (Lance TR-FRET) in CHO-hCB1 cells; assay type: cell-based; conditions: for hCB1 cAMP Efficacy: % of the maximum CP55940 (full agonist) signal; for hCB1 cAMP Efficacy / EC50 / Emax / hCB1 cAMP EC50: mean ± SEM; for EC50 / hCB1 cAMP EC50: forskolin-stimulated; for Emax: read-out: hCB1 cAMP Efficacy, % of the maximum CP55940 (full agonist) signal
T1 construct: host or cells: Chinese Hamster Ovary (CHO) cells
T1 sequence (P21554 whole entry): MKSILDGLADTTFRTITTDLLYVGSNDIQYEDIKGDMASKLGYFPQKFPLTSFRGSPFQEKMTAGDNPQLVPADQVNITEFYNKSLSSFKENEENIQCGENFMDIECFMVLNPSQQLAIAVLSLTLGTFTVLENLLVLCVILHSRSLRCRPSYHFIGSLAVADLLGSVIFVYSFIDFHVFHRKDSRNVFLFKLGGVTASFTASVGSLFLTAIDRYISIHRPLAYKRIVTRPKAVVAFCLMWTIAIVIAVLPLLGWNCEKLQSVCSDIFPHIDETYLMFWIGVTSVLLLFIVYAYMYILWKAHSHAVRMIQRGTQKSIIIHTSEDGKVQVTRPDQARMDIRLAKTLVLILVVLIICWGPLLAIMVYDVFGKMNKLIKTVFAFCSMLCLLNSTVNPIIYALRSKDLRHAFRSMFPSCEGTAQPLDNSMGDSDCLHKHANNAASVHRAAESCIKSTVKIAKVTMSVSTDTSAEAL
Description: The cAMP assays were performed in Chinese Hamster Ovary (CHO) cells (Perkin Elmer, Cat # ES-110-C) stably expressing the human CB1 receptor (hCB1) cultured under standard cell culture conditions (37 °C, 5% carbon dioxide, DMEM media with 1% Penicillin/Streptomycin and 400 µg/mL G418) using the Lance™ assay kit and manufacturer’s instructions were closely followed (Perkin Elmer). In brief, stimulation buffer containing 1X Hank’s Balanced Salt Solution (HBSS), 5 mM HEPES, 0.1% BSA stabilizer, and 0.5 mM final IBMX was prepared and titrated to pH 7.4 at rt. Serial dilutions of the test compounds and 300 nM forskolin, both prepared at 4× the desired final concentration in stimulation buffer, were added to a 96-well white ½ area microplate (PerkinElmer). The CHO-hCB1 cells were lifted with a non-enzymatic solution (Cell-stripper, Mediatech Inc., Orlando, FL, USA), and 4000 cells were added to each well. After incubating for 30 min at room temperature, Eu-cAMP tracer and uLIGHT-anti-cAMP working solutions were added per the manufacturer’s instructions. After incubation for 1 h, the TR-FRET signal (ex 337 nm, em 620 and […]) was read on a CLARIO star multimode plate reader (BMG Biotech, Cary, NC, USA). Data were analyzed using Prism software (GraphPad, La Jolla, CA, USA). Nonlinear regression analysis was performed to fit data and obtain maximum response (Emax), EC50, correlation coefficient (r^2), and other parameters. All experiments were performed in duplicate 2–3 times to ensure reproducibility and data are reported as mean ± standard error of mean unless noted otherwise.

[2] = Pharmacokinetic evaluation of brain exposure in mice; parameters: species or system C57BL/6 mice; conditions: female, C57BL/6, mouse, in vivo, C57BL6 mice, 3 mg/kg IP; for Cmax: brain, 0.5-4 h, read-out: brain maximum (Cmax) concentration; for Kp: read-out: brain:plasma Cmax ratio
Description: Female C57BL/6 mice were bred in house and used at ~10 weeks of age for pharmacokinetic (PK) testing. Three animals were tested per time point. Doses were formulated in 2% NMP in canola oil, and all compounds were delivered at 3 mg/kg by intraperitoneal injection (IP). Tissues were taken at 0.5, 1, 2, and 4 h post dose. Animals were subjected to whole body perfusion using saline prior to tissue collection. Brain samples were homogenized with 50:50 ethanol:water (1:5, v/v). Forty µL of the homogenate, 10 µL of acetonitrile, and 150 µL of 100 ng/mL reserpine in acetonitrile containing 0.1% formic acid were vortexed and centrifuged. Plasma samples were diluted with 10 µL of acetonitrile, 150 µL of 100 ng/mL reserpine in acetonitrile containing 0.1% formic acid, vortexed and centrifuged. Samples were subjected to LC/MS/MS analysis. Standards were prepared in blank samples and used for calibration curves. Chromatography was performed using a Phenomenex Luna C18 column.

hCB1 = hCB1 (Homo sapiens, UniProt P21554); experiment: Radioligand displacement of [3H]CP55940; conditions: average of 3 measurements, read-out: Binding affinity (Ki)
Chain of hCB1 (P21554 whole entry): as above
Description: Further characterization of 21 was performed using radioligand displacement of [^3H]CP55940 and equilibrium dissociation constant (Ki) value was determined as described previously. Data reported are average values from 3 measurements with <30% standard error.

[3] = hCB1 cAMP EC50, CHO cells stably expressing hCB1
[4] = CHO cells stably expressing hCB1, read-out: hCB1 cAMP EC50
[5] = CHO cells stably expressing hCB1

With `N#Cc1c(Oc2cccc(OS(=O)(=O)CCCC(F)(F)F)c2)cccc1C(F)(F)F` [Compound 1, 3-[2-Cyano-3-(trifluoromethyl)phenoxy]phenyl-4,4,4-trifluoro-1-butanesulfonate, reference compound] the “hCB1 cAMP Efficacy” value [1] was 39 ± 11%, the EC50 [1, 3] was 46 ± 5 nM and the Cmax [2] was about 341 ng/mL. The Kp [2] was 0.4.

`N#Cc1c(Oc2cccc(NS(=O)(=O)CCCC(F)(F)F)c2)cccc1C(F)(F)F` [Compound 4, N-{3-[2-Cyano-3-(trifluoromethyl)phenoxy]phenyl}-4,4,4-trifluorobutane-1-sulfonamide] gave an EC50 [1, 4] of 190 ± 46 nM, an Emax [1] of 96% and a melting point of 96 to 97 °C.

Work on `O=S(=O)(CCCC(F)(F)F)Nc1cccc(Oc2cccc(C(F)(F)F)c2Cl)c1` [Compound 5, N-{3-[2-Chloro-3-(trifluoromethyl)phenoxy]phenyl}-4,4,4-trifluorobutane-1-sulfonamide] yielded an EC50 [1, 4] of 175 ± 42 nM and an Emax [1] of 95%.

For `N#Cc1ccccc1Oc1cccc(NS(=O)(=O)CCCC(F)(F)F)c1` [Compound 6, N-[3-(2-Cyanophenoxy)phenyl]-4,4,4-trifluorobutane-1-sulfonamide], the EC50 [1, 4] was 106 ± 8 nM and the Emax [1] was 95%.

In the case of `CCCCCS(=O)(=O)Nc1cccc(Oc2cccc(C(F)(F)F)c2C#N)c1` [Compound 7, N-{3-[2-Cyano-3-(trifluoromethyl)phenoxy]phenyl}pentane-1-sulfonamide], the EC50 [1, 4] is reported as 248 ± 108 nM and the Emax [1] is reported as 76%.

For `N#Cc1c(Oc2cccc(NS(=O)(=O)Cc3ccccc3)c2)cccc1C(F)(F)F` [Compound 8, N-{3-[2-Cyano-3-(trifluoromethyl)phenoxy]phenyl}-1-phenylmethanesulfonamide], the EC50 [1, 4] was 228 ± 134 nM, the Emax [1] was 102% and the melting point was 131 to 132 °C.

Work on `O=S(=O)(Cc1ccccc1)Nc1cccc(Oc2cccc(C(F)(F)F)c2Cl)c1` [Compound 9, N-{3-[2-Chloro-3-(trifluoromethyl)phenoxy]phenyl}-1-phenylmethanesulfonamide] yielded an EC50 [1, 4] of 255 ± 62 nM, an Emax [1] of 78% and a melting point of 129 to 130 °C.

With `N#Cc1ccccc1Oc1cccc(NS(=O)(=O)Cc2ccccc2)c1` [Compound 10, N-[3-(2-Cyanophenoxy)phenyl]-1-phenylmethanesulfonamide] the EC50 [1, 4] was 164 ± 32 nM and the Emax [1] was 82%.

For `N#Cc1c(Oc2cccc(NS(=O)(=O)Cc3ccccc3Cl)c2)cccc1C(F)(F)F` [Compound 11, 1-(2-Chlorophenyl)-N-{3-[2-cyano-3-(trifluoromethyl)phenoxy]phenyl}methanesulfonamide], the “hCB1 cAMP EC50” value [1, 5] was “loss of activity; also recorded: Inactive” and the melting point was 121 to 122 °C.

In the case of `N#Cc1c(Oc2cccc(NS(=O)(=O)Cc3cccc(Cl)c3)c2)cccc1C(F)(F)F` [Compound 12, 1-(3-Chlorophenyl)-N-{3-[2-cyano-3-(trifluoromethyl)phenoxy]phenyl}methanesulfonamide], the “hCB1 cAMP EC50” value [1, 5] is reported as “loss of activity; also recorded: Inactive” and the melting point is reported as 144 to 145 °C.

With `N#Cc1c(Oc2cccc(NS(=O)(=O)Cc3ccc(Cl)cc3)c2)cccc1C(F)(F)F` [Compound 13, 1-(4-Chlorophenyl)-N-{3-[2-cyano-3-(trifluoromethyl)phenoxy]phenyl}methanesulfonamide] the “hCB1 cAMP potency compared to the unsubstituted benzylsulfonamide 8” value ([1]; fold more potent than 8) was “about 10 ×”, the EC50 [1, 3] was 25 ± 4 nM and the Emax [1] was 95%. The melting point was 115 to 116 °C.

For `N#Cc1c(Oc2cccc(NS(=O)(=O)c3cccc(OC(F)(F)F)c3)c2)cccc1C(F)(F)F` [Compound 14, N-{3-[2-Cyano-3-(trifluoromethyl)phenoxy]phenyl}-3-(trifluoromethoxy)benzene-1-sulfonamide], the “hCB1 cAMP EC50” value [1, 5] was “Inactive” and the melting point was 120 to 121 °C.

For `N#Cc1c(Oc2cccc(NS(=O)(=O)c3ccc(OC(F)(F)F)cc3)c2)cccc1C(F)(F)F` [Compound 15, N-{3-[2-Cyano-3-(trifluoromethyl)phenoxy]phenyl}-4-(trifluoromethoxy)benzene-1-sulfonamide], the “hCB1 cAMP EC50” value [1, 5] was “Inactive” and the melting point was 164 to 165 °C.

In the case of `CCCCCC(=O)Nc1cccc(Oc2cccc(C(F)(F)F)c2C#N)c1` [Compound 16, N-{3-[2-Cyano-3-(trifluoromethyl)phenoxy]phenyl}hexanamide], the “hCB1 cAMP EC50” value [1, 5] is reported as “Inactive” and the melting point is reported as 95 to 96 °C.

With `CCCCOC(=O)Nc1cccc(Oc2cccc(C(F)(F)F)c2C#N)c1` [Compound 17, Butyl N-{3-[2-Cyano-3-(trifluoromethyl)phenoxy]phenyl}carbamate] the “hCB1 cAMP EC50” value [1, 5] was “Inactive”.

With `CCCCNC(=O)Nc1cccc(Oc2cccc(C(F)(F)F)c2C#N)c1` [Compound 18, 3-Butyl-1-{3-[2-cyano-3-(trifluoromethyl)phenoxy]phenyl}urea] the “hCB1 cAMP EC50” value [1, 5] was “Inactive”.

With `CCCCN(C)C(=O)Nc1cccc(Oc2cccc(C(F)(F)F)c2C#N)c1` [Compound 19, 3-Butyl-1-{3-[2-cyano-3-(trifluoromethyl)phenoxy]phenyl}-3-methylurea] the “hCB1 cAMP EC50” value [1, 5] was “Inactive”.

With `N#Cc1c(Oc2cccc(NC(=O)Cc3ccccc3)c2)cccc1C(F)(F)F` [Compound 20, N-{3-[2-Cyano-3-(trifluoromethyl)phenoxy]phenyl}-2-phenylacetamide] the EC50 [1, 4] was 474 ± 174 nM, the Emax [1] was under 20% and the melting point was 136 to 137 °C.

For `N#Cc1c(Oc2cccc(NS(=O)(=O)NC3CCCCC3)c2)cccc1C(F)(F)F` [Compound 21, N-Cyclohexyl({3-[2-cyano-3-(trifluoromethyl)phenoxy]phenyl}mamino)sulfonamide], the “hCB1 cAMP Efficacy” value [1] was 27 ± 18%, the EC50 [1, 3] was 139 ± 24 nM and the Emax [1] was 27%. For the same compound, the Ki (hCB1) was about 1500 nM, the Cmax [2] was about 75 ng/mL and the Kp [2] was 0.17. For the same compound, the melting point was 199 to 200 °C.

With `CCCCCS(=O)(=O)Nc1ccc(Oc2cccc(C(F)(F)F)c2C#N)cc1` [Compound 22, N-{4-[2-Cyano-3-(trifluoromethyl)phenoxy]phenyl}pentane-1-sulfonamide] the “hCB1 cAMP EC50” value [1, 5] was “Inactive” and the melting point was 94 to 95 °C.

In the case of `N#Cc1c(Oc2ccc(NS(=O)(=O)Cc3ccccc3)cc2)cccc1C(F)(F)F` [Compound 23, N-{4-[2-Cyano-3-(trifluoromethyl)phenoxy]phenyl}-1-phenylmethanesulfonamide], the “hCB1 cAMP EC50” value [1, 5] is reported as “Inactive” and the melting point is reported as 166 to 167 °C.

With `N#Cc1c(Oc2ccc(NC(=O)Cc3ccccc3)cc2)cccc1C(F)(F)F` [Compound 24, N-{4-[2-Cyano-3-(trifluoromethyl)phenoxy]phenyl}-2-phenylacetamide] the “hCB1 cAMP Efficacy” value [1] was 36 ± 14%, the EC50 [1, 4] was 366 ± 136 nM and the Emax [1] was 36%. It also gave a Cmax [2] of about 730 ng/mL, a Kp [2] of 0.79 and a melting point of 200 to 201 °C.
